Measured values taken from US7329650B2, “Peptides and peptide analogues designed from HFE protein and their uses in the treatment of iron overload diseases” (Bio-Rad Laboratories, Inc., priority 1998, dated 2008).
Ends that are not written are not given here.

Molecular target: T1, transferrin receptor (TfR) (Homo sapiens, UniProt P02786)
T1 construct: HeLa cells were grown to 80-90% confluence at 37° C. at 5% CO2; endogenous in cells; host or cells: HeLa cells
Assay: Measurement of cell-associated transferrin (labeled transferrin binding to HeLa cells, Scatchard analysis)
Details: for effect on TfR affinity for transferrin (in words): HeLa cells, peptide 50 μM or soluble HFE/β2m 100 nM alone

T1 sequence (P02786 whole entry): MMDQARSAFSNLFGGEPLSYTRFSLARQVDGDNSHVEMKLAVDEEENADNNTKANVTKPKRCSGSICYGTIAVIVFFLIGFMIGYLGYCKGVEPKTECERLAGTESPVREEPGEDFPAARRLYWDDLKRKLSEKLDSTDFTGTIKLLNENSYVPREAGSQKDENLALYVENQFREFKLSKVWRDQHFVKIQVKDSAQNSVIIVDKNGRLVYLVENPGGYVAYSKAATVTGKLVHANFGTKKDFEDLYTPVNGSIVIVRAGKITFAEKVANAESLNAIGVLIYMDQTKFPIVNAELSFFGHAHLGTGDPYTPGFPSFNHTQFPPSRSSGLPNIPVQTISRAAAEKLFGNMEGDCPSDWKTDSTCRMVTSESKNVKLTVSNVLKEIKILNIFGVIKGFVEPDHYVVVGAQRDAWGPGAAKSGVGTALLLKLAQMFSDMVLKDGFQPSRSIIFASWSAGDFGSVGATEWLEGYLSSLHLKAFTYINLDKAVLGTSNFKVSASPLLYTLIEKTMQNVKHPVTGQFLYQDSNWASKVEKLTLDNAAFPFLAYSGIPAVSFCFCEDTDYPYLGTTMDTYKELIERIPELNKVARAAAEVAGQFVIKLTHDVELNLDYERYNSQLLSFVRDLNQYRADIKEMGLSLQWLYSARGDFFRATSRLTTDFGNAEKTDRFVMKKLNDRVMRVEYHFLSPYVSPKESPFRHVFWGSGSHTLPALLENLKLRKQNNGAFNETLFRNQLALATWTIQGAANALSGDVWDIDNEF

## GWDHMFTVDFATIMENH [G-(17)-H (Ala)]
FIG. 2 experiment
  effect on TfR affinity for transferrin (in words): little effect
FIG. 3 experiment
  effect on TfR affinity for transferrin (in words): little effect

## GWDHMFTVDFWTIMENH [G-(17)-H (Trp)]
FIG. 1 experiment, peptide 50 μM or soluble HFE/β2m 100 nM
  increase of KD of TfR for transferrin versus HeLa cells alone: approximately 2 fold
FIG. 3 experiment
  effect on TfR affinity for transferrin (in words): significant increase in KD
